For test [1], the target named is T1, human CB1 receptor (Homo sapiens, UniProt P21554). Nature of the test: Human CB1 receptor binding, [3H] CP-55,940 displacement on HEK cell membranes. Also noted: expressed in transfected cells; host or cells: HEK cells, doxycycline-induced; membrane preparation. The procedure, abridged:
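Membranes from doxycycline-induced HEK cells expressing human CB1 incubated 60 min at room temperature with [3H] CP-55,940 (final […]) in 50 mM Tris pH 7.4, 100 mM NaCl, 3 mM MgCl2, 0.2 mM EGTA, 0.04% BSA. Nonspecific binding defined with 50 μM WIN-55,212-2; filtration and scintillation counting gave EC50 and Ki.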

The target of test [2] is T1, human CB1 receptor. Nature of the test: [35S] GTPγS binding on membranes of CHO cells expressing the human CB1 receptor (agonism). The test is classed as biochemical. Also noted: expressed in transfected cells; membrane preparation. The gist of the method:
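Membranes from human CB1-expressing CHO cells (5 μg/well) incubated with test compound and [35S]GTPγS in 50 mM Tris pH 7.4, 100 mM NaCl, 3 mM MgCl2, 0.2 mM EGTA, 0.04% BSA for 45 min at 37 °C. Bound label collected by filtration, scintillation counted; EC50 from curve fits.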
In general terms: GTPγS resists hydrolysis and so accumulates on activated G proteins.

The mark [3] stands for this setting: GTPγS EC50, human CB1, CHO cell membranes.
[4] abbreviates: human CB1, CHO cell membranes, read-out: GTPγS EC50.

Where two headings read alike, the source gives them in different places.

39 molecules from patent publication US20110028447A1, “INDAZOLE DERIVATIVES” (Pfizer Inc., priority 2008, published 2011) can be followed below.

T1 sequence (P21554 whole entry): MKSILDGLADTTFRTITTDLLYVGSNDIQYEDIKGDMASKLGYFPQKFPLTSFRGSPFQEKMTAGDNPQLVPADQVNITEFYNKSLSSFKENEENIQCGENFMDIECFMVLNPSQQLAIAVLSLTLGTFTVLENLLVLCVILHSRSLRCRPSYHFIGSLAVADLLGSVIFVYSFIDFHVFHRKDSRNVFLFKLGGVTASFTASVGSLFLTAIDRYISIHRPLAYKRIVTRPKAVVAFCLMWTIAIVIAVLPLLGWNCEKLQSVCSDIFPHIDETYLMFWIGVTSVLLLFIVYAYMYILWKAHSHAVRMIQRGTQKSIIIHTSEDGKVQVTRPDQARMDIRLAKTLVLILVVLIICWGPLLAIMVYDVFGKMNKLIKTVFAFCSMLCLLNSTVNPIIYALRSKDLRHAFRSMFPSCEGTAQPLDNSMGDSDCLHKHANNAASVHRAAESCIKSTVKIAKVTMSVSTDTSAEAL

`CC(C)(C)[C@H](NC(=O)c1nn(Cc2ccc(F)cc2)c2ccc(Cl)cc12)C(=O)NC1CCC1` [Example 438]: the Ki (commonly a dissociation constant, usually derived from enzyme kinetics or from competition with a known ligand) in test [1] (CB1 Ki) was 10.9 nM. Moreover, a half-maximal effect in test [2] (setting [3]) (EC50) was put at 20 nM.
On to `CC(C)(C)[C@H](NC(=O)c1nn(Cc2ccc(C#N)cc2)c2c(F)cccc12)C(=O)N[C@@H]1CNC(=O)C1` [Example 457], for which the inhibition constant Ki in test [1] (CB1 Ki) is 1.77 nM. Further, the 50% effective concentration (EC50) – broadly, the concentration that produces a half-maximal response – in test [2] (setting [3]) stood at 108 nM.
`CC(C)(C)[C@H](NC(=O)c1nn(Cc2ccc(F)cc2)c2ccccc12)C(=O)N[C@@H]1CNC(=O)C1` [Example 459] gave a Ki in test [1] (CB1 Ki) of 2.78 nM. Besides, the EC50 in test [2] (setting [3]) worked out at 17.7 nM.
In the case of `CC(C)(C)[C@H](NC(=O)c1nn(Cc2ccc(F)cc2)c2ccccc12)C(=O)NCc1nnc(C(=O)NCCO)o1` [Example 462], the Ki in test [1] (read-out: CB1 Ki) worked out at 2.29 nM. In test [2] (setting [4]), the EC50 is 13 nM.
In the case of `CC(C)(C)[C@H](NC(=O)c1nn(Cc2ccc(F)cc2)c2ccccc12)C(=O)NCCC(N)=O` [Example 470], affinity in test [1] (CB1 Ki) was put at a Ki of 11.2 nM. The EC50 in test [2] (setting [3]) was 33.7 nM.
On the same counts, the results for `CC(C)(C)[C@H](NC(=O)c1nn(Cc2ccc(F)cc2F)c2ccccc12)C(=O)NCCC(N)=O` [Example 472] are 19.6 nM and 52.7 nM.
On the same counts, the results for `CC(C)(C)[C@H](NC(=O)c1nn(Cc2ccc(F)c(F)c2)c2ccccc12)C(=O)NCCC(N)=O` [Example 473] are 17 nM and 41.8 nM.
On the same counts, the results for `CC(C)(C)[C@H](NC(=O)c1nn(Cc2ccc(F)cc2)c2c(F)cccc12)C(=O)NCCC(N)=O` [Example 476] are 6.48 nM and 31.4 nM.
For the molecule `CC(C)(C)[C@H](NC(=O)c1nn(Cc2ccc(F)cc2)c2ccccc12)C(=O)NCCOc1ccccn1` [Example 478], the Ki in test [1] (read-out: CB1 Ki) was determined as 21.3 nM. Further, in test [2] (setting [4]), the EC50 came to 23.7 nM.
Consider `CC(C)(C)[C@H](NC(=O)c1nn(Cc2ccc(F)cc2)c2ccccc12)C(=O)NCCOc1ccnc(N)n1` [Example 479], for which the Ki in test [1] (read-out: CB1 Ki) stood at 13.4 nM. Besides, the EC50 in test [2] (setting [4]) was 131 nM.
With `CC(C)(C)[C@H](NC(=O)c1nn(Cc2ccc(F)cc2)c2ccccc12)C(=O)NCCNc1ccccn1` [Example 480], the Ki in test [1] (read-out: CB1 Ki) worked out at 15.3 nM. The EC50 in test [2] (setting [4]) worked out at 42.6 nM.
As to `CC(C)(C)[C@H](NC(=O)c1nn(Cc2ccc(F)cc2)c2ccccc12)C(=O)NCCc1cnccn1` [Example 482], the inhibition constant (Ki) in test [1] (read-out: CB1 Ki) was 12.1 nM. The EC50 in test [2] (setting [4]) was found to be 22.2 nM.
Turning to `CC(C)(C)[C@H](NC(=O)c1nn(Cc2ccc(F)cc2)c2ccccc12)C(=O)NC[C@H]1C[C@@H]1CO` [Example 488], the Ki in test [1] (CB1 Ki) was found to be 5.61 nM. Besides, the EC50 in test [2] (setting [3]) turned out to be 21.4 nM.
On the same counts, the results for `CC(C)(C)[C@H](NC(=O)c1nn(Cc2ccc(C#N)cc2)c2c(F)cccc12)C(=O)NC[C@H]1C[C@H]1CO` [Example 490] are 12.4 nM and 63.1 nM.
Molecule `CC(C)(C)[C@H](NC(=O)c1nn(Cc2ccc(F)cc2)c2ccccc12)C(=O)NC[C@H]1C[C@H]1CO` [Example 492] gave an inhibition constant (Ki) in test [1] (CB1 Ki) of 1.32 nM. This molecule also had an EC50 in test [2] (setting [3]) of 9.71 nM.
On the same counts, the results for `CC(C)NC(=O)CNC(=O)[C@@H](NC(=O)c1nn(Cc2ccc(F)cc2)c2ccccc12)C(C)(C)C` [Example 493] are 0.95 nM and 9.94 nM.
Regarding `CC(C)(C)[C@H](NC(=O)c1nn(Cc2ccc(F)cc2)c2ccccc12)C(=O)NCC(=O)NC1CC1` [Example 494], in test [1] (CB1 Ki), the Ki stood at 0.34 nM. Further, a half-maximal effect in test [2] (setting [3]) (EC50) was put at 1.17 nM.
On the same counts, the results for `CC(C)(C)[C@H](NC(=O)c1nn(Cc2ccc(F)cc2)c2c(F)cc(Cl)cc12)C(=O)NC[C@H](O)CO` [Example 496] are 16.5 nM and 30.2 nM.
In turn, `CC(C)(C)[C@H](NC(=O)c1nn(Cc2ccc(F)cc2)c2c(F)cc(Cl)cc12)C(=O)NCCS(N)(=O)=O` [Example 497] registered an inhibitory constant (Ki) in test [1] (CB1 Ki) of 16.7 nM. In test [2] (setting [3]), this molecule displayed an EC50 of 59.5 nM.
On the same counts, the results for `CC(C)(C)[C@H](NC(=O)c1nn(Cc2ccc(F)cc2)c2c(F)cc(Cl)cc12)C(=O)NCC(N)=O` [Example 498] are 16.4 nM and 38.3 nM.
`CC(C)(C)[C@H](NC(=O)c1nn(Cc2ccc(F)cc2)c2ccccc12)C(=O)NCCN1CCCC1=O` [Example 499]: the inhibition constant Ki in test [1] (read-out: CB1 Ki) came to 18.3 nM. The EC50 in test [2] (setting [4]) worked out at 204 nM.
On the same counts, the results for `CC(C)(C)[C@H](NC(=O)c1nn(Cc2ccc(F)cc2)c2ccccc12)C(=O)NCCN1Cc2ncccc2C1=O` [Example 500] are 10.1 nM and 47.4 nM.
On the same counts, the results for `CC(C)(C)[C@H](NC(=O)c1nn(Cc2ccc(F)cc2)c2ccccc12)C(=O)NCCc1nc2ccccc2c(=O)[nH]1` [Example 501] are 24.2 nM and 16.8 nM.
For `CC(C)(C)[C@H](NC(=O)c1nn(Cc2ccc(F)cc2)c2ccccc12)C(=O)NCCn1ccccc1=O` [Example 502], in test [1] (read-out: CB1 Ki), the Ki turned out to be 17.3 nM. In test [2] (setting [4]), the EC50 was determined as 36.9 nM.
In the case of `CC(C)(C)[C@H](NC(=O)c1nn(Cc2ccc(F)cc2)c2ccccc12)C(=O)NC[C@H](O)CN1CCOCC1` [Example 504], the Ki in test [1] (read-out: CB1 Ki) was 21.3 nM. For the same molecule, the EC50 in test [2] (setting [4]) was 132 nM.
Regarding `CC(C)(C)[C@H](NC(=O)c1nn(Cc2ccc(F)cc2)c2ccccc12)C(=O)NCCc1n[nH]c(=O)[nH]1` [Example 506], in test [1] (read-out: CB1 Ki), the Ki was 1.3 nM. The concentration for a half-maximal effect (EC50) in test [2] (setting [4]) came to 8.97 nM.
On the same counts, the results for `Cc1cc2c(C(=O)N[C@H](C(=O)NCc3nnc(C(N)=O)o3)C(C)(C)C)nn(Cc3ccc(F)cc3)c2cc1F` [Example 508] are 2.71 nM and 16.2 nM.
In test [1] (CB1 Ki), `Cc1cc2c(C(=O)N[C@H](C(N)=O)C(C)(C)C)nn(Cc3ccc(F)cc3)c2cc1F` [Example 509] displayed a Ki of 0.45 nM. For the same molecule, in test [2] (setting [3]), the response was half-maximal at 7.55 nM (EC50).
On the same counts, the results for `Cc1cc2c(C(=O)N[C@H](C(=O)NC[C@H](O)CO)C(C)(C)C)nn(Cc3ccc(F)cc3)c2cc1F` [Example 510] are 6.87 nM and 24.8 nM.
`Cc1cc2c(C(=O)N[C@H](C(=O)NCCO)C(C)(C)C)nn(Cc3ccc(F)cc3)c2cc1F` [Example 511] showed a Ki in test [1] (CB1 Ki) of 0.68 nM. In test [2] (setting [3]), the EC50 amounted to 6.7 nM.
In turn, `Cc1cc2c(C(=O)N[C@H](C(=O)NCCS(N)(=O)=O)C(C)(C)C)nn(Cc3ccc(F)cc3)c2cc1F` [Example 512] yielded a Ki in test [1] (CB1 Ki) of 8.4 nM. Further, the EC50 in test [2] (setting [3]) came to 31.4 nM.
On the same counts, the results for `CC(C)(C)[C@H](NC(=O)c1nn(Cc2ccc(F)cc2)c2ccccc12)C(=O)Nc1cnoc1` [Example 513] are 2.3 nM and 13.7 nM.
On the same counts, the results for `Cc1cc(NC(=O)[C@@H](NC(=O)c2nn(Cc3ccc(F)cc3)c3ccccc23)C(C)(C)C)sn1` [Example 514] are 3.03 nM and 33.3 nM.
In the case of `CC(C)(C)[C@H](NC(=O)c1nn(Cc2ccc(F)cc2)c2ccccc12)C(=O)NC[C@@H](O)[C@H](O)CO` [Example 516], the Ki in test [1] (CB1 Ki) worked out at 4.28 nM. This molecule also registered an EC50 in test [2] (setting [3]) of 44.6 nM.
`CC(C)(C)[C@H](NC(=O)c1nn(Cc2ccc(F)cc2)c2ccccc12)C(=O)NC[C@H](O)[C@@H](O)CO` [Example 517] displayed a Ki in test [1] (CB1 Ki) of 15.9 nM. The same molecule showed an EC50 in test [2] (setting [3]) of 111 nM.
Turning to `CC(C)(C)[C@H](NC(=O)c1nn(Cc2ccc(F)cc2)c2ccccc12)C(=O)NCC(=O)Nc1cnoc1` [Example 518], in test [1] (read-out: CB1 Ki), the Ki was 1.8 nM. For the same molecule, the EC50 in test [2] (setting [4]) came to 13.6 nM.
On to `CC(C)(C)[C@H](NC(=O)c1nn(Cc2ccc(F)cc2)c2ccccc12)C(=O)NCC(=O)Nc1nncs1` [Example 519], for which, in test [1] (read-out: CB1 Ki), the Ki is 0.95 nM. Besides, in test [2] (setting [4]), the EC50 was 5.77 nM.
On the same counts, the results for `CC(C)(C)[C@H](NC(=O)c1nn(Cc2ccc(F)cc2)c2ccccc12)C(=O)NCC(=O)Nc1ccccn1` [Example 520] are 1.88 nM and 10.1 nM.
Take `CC(C)(C)[C@H](NC(=O)c1nn(Cc2ccc(F)cc2)c2ccccc12)C(=O)NCC(=O)NC[C@@H](O)CO` [Example 523]: the Ki in test [1] (read-out: CB1 Ki) came out at 5.22 nM. Further, the EC50 in test [2] (setting [4]) amounted to 2.8 nM.
